What was measured:
[1] = test system: soybean; test: Soil treatment test for upland field (Test Example 2): phytotoxicity to soybean; format: in vivo; settings: soil treatment before germination, examined after 3 weeks; also: key: 0: normal growth; 1: little damaged; 2: low damaged; 3: medium damaged; 4: serious damaged; 5: complete killed
[2] = test system: southern crabgrass (Digitaria ciliaris); test: Soil treatment test for upland field (Test Example 2): southern crabgrass; format: in vivo; settings: soil treatment before germination, examined after 3 weeks
Procedure, shortened: (§1)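 Scores run on a six-grade scale from 0 (under 20% inhibition) to 5 (complete), relative to untreated pots and assessed 3 weeks after treatment in a 25° C. glasshouse. Compound was applied pre-emergence as a diluted wettable powder sprayed over freshly seeded, soil-covered pots at 15 liters water per are.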

[3] = test system: soybean; test: Foliage treatment test for upland field (Test Example 3): phytotoxicity to soybean; format: in vivo; settings: foliage treatment at 1.0-2.0 leaf stage of southern crabgrass, examined after 3 weeks; also: key: 0: normal growth; 1: little damaged; 2: low damaged; 3: medium damaged; 4: serious damaged; 5: complete killed
Procedure, shortened: (§2)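 Crops sown in compost-mixed soil pots, kept in a glasshouse at 25° C. average. Effect scored after 3 weeks versus untreated control on a 0–5 scale (0 normal growth, 5 complete kill).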

[4] = test system: corn; test: Foliage treatment test for upland field (Test Example 3): phytotoxicity to corn; format: in vivo; settings: foliage treatment at 1.0-2.0 leaf stage of southern crabgrass, examined after 3 weeks; also: key: 0: normal growth; 1: little damaged; 2: low damaged; 3: medium damaged; 4: serious damaged; 5: complete killed
Procedure, shortened: as §2

[5] = test system: common purslane; test: Foliage treatment test for upland field (Test Example 3): common purslane; format: in vivo; settings: foliage treatment at 1.0-2.0 leaf stage of southern crabgrass, examined after 3 weeks
Procedure, shortened: (§3)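 Scored after 3 weeks at 25° C on a six-grade scale from 0 (under 20% inhibition) to 5 (100%) relative to untreated plants. Foliar spray of diluted wettable powder at 15 L/are, applied when southern crabgrass reached the 1.0-2.0 leaf stage.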

[6] = test system: common purslane (Portulaca oleracea); test: Soil treatment test for upland field (Test Example 2): common purslane; format: in vivo; settings: soil treatment before germination, examined after 3 weeks
Procedure, shortened: as §1

[7] = test system: common lambsquaters; test: Foliage treatment test for upland field (Test Example 3): common lambsquaters; format: in vivo; settings: foliage treatment at 1.0-2.0 leaf stage of southern crabgrass, examined after 3 weeks
Procedure, shortened: as §3

[8] = test system: Japanese bulrush (Scirpus juncoides); test: Weed control test for paddy field (Test Example 1): Japanese bulrush; format: in vivo; settings: paddy pots, treated at 1.0 leaf stage of barnyard grass, examined after 3 weeks
Procedure, shortened: (§4)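 Paddy-soil pots flooded to 3 cm, seeded with weeds and transplanted with 2.0-leaf rice. Wettable-powder formulations diluted in water and applied dropwise at a prescribed active-ingredient dose per are at barnyard grass 1.0-leaf stage. After 3 weeks in a 25 °C glasshouse, growth inhibition versus untreated control scored 0–5 (0: <20%; 5: 100%).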

[9] = test system: slender amaranth (Amaranthus viridis); test: Soil treatment test for upland field (Test Example 2): slender amaranth; format: in vivo; settings: soil treatment before germination, examined after 3 weeks
Procedure, shortened: as §1

[10] = test system: rice plant; test: Weed control test for paddy field (Test Example 1): phytotoxicity to rice plant; format: in vivo; settings: paddy pots, treated at 1.0 leaf stage of barnyard grass, examined after 3 weeks
Procedure, shortened: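 Rice transplanted at 2.0 leaf stage into flooded paddy soil pots (3 cm water) sown with weeds. Wettable powder applied dropwise at a prescribed active ingredient dose per are at 1.0 leaf stage of barnyard grass. Kept 3 weeks in glasshouse at 25 °C. Phytotoxicity scored 0 (normal) to 5 (killed) against untreated control.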

[11] = test system: corn; test: Soil treatment test for upland field (Test Example 2): phytotoxicity to corn; format: in vivo; settings: soil treatment before germination, examined after 3 weeks; also: key: 0: normal growth; 1: little damaged; 2: low damaged; 3: medium damaged; 4: serious damaged; 5: complete killed
[12] = test system: barnyard grass (Echinochloa crusgalli); test: Weed control test for paddy field (Test Example 1): barnyard grass; format: in vivo; settings: paddy pots, treated at 1.0 leaf stage of barnyard grass, examined after 3 weeks
Procedure, shortened: as §4

[13] = test system: slender amaranth; test: Foliage treatment test for upland field (Test Example 3): slender amaranth; format: in vivo; settings: foliage treatment at 1.0-2.0 leaf stage of southern crabgrass, examined after 3 weeks
Procedure, shortened: as §3

[14] = test system: southern crabgrass; test: Foliage treatment test for upland field (Test Example 3): southern crabgrass; format: in vivo; settings: foliage treatment at 1.0-2.0 leaf stage of southern crabgrass, examined after 3 weeks
Procedure, shortened: as §3

[15] = test system: velvetleaf (Abutilon theophrasti); test: Soil treatment test for upland field (Test Example 2): velvetleaf; format: in vivo; settings: soil treatment before germination, examined after 3 weeks
Procedure, shortened: as §1

[16] = test system: flat sedge (Cyperus serotinus); test: Weed control test for paddy field (Test Example 1): flat sedge; format: in vivo; settings: paddy pots, treated at 1.0 leaf stage of barnyard grass, examined after 3 weeks
Procedure, shortened: as §4

[17] = test system: velvetleaf; test: Foliage treatment test for upland field (Test Example 3): velvetleaf; format: in vivo; settings: foliage treatment at 1.0-2.0 leaf stage of southern crabgrass, examined after 3 weeks
Procedure, shortened: as §3

[18] = test system: wheat; test: Foliage treatment test for upland field (Test Example 3): phytotoxicity to wheat; format: in vivo; settings: foliage treatment at 1.0-2.0 leaf stage of southern crabgrass, examined after 3 weeks
Procedure, shortened: as §2

[19] = test system: common lambsquaters (Chenopodium album); test: Soil treatment test for upland field (Test Example 2): common lambsquaters; format: in vivo; settings: soil treatment before germination, examined after 3 weeks
Procedure, shortened: as §1

[20] = test system: wheat; test: Soil treatment test for upland field (Test Example 2): phytotoxicity to wheat; format: in vivo; settings: soil treatment before germination, examined after 3 weeks
[21] = test system: Monochoria (Monochoria vaginalis); test: Weed control test for paddy field (Test Example 1): Monochoria; format: in vivo; settings: paddy pots, treated at 1.0 leaf stage of barnyard grass, examined after 3 weeks
Procedure, shortened: as §4

melting point: 86 to 89 °C
SMILES: FC(F)(F)COC/C(=C\c1cccc(C(F)(F)F)c1)c1nc2cc(C(F)(F)F)ccc2o1 [Compound 85, (E)-2-(5-trifluoromethylbenzoxazol-2-yl)-1-(3-trifluoromethylphenyl)-3-(2,2,2-trifluoroethoxy)propene]
Phytotoxicity soybean ([1]; dose 2.5 g ai/a): 0
Phytotoxicity soybean ([1]; dose 5 g ai/a): 0
Herbicidal Effect southern crabgrass ([2]; dose 2.5 g ai/a): 5 (100%)
Herbicidal Effect southern crabgrass ([2]; dose 5 g ai/a): 5 (100%)
Phytotoxicity soybean ([3]; dose 2.5 g ai/a): 2
Phytotoxicity soybean ([3]; dose 5 g ai/a): 2
Phytotoxicity corn ([4]; dose 2.5 g ai/a): 1
Phytotoxicity corn ([4]; dose 5 g ai/a): 1
Herbicidal Effect common purslane ([5]; dose 2.5 g ai/a): 5 (100%)
Herbicidal Effect common purslane ([5]; dose 5 g ai/a): 5 (100%)
Herbicidal Effect common purslane ([6]; dose 2.5 g ai/a): 5 (100%)
Herbicidal Effect common purslane ([6]; dose 5 g ai/a): 5 (100%)
Herbicidal Effect Common lambsquatters ([7]; dose 2.5 g ai/a): 5 (100%)
Herbicidal Effect Common lambsquatters ([7]; dose 5 g ai/a): 5 (100%)
Herbicidal Effect Japanese bulrush ([8]; dose 2.5 g ai/a): 4 (80%-less than 100%)
Herbicidal Effect Japanese bulrush ([8]; dose 5 g ai/a): 5 (100%)
Herbicidal Effect slender amaranth ([9]; dose 2.5 g ai/a): 5 (100%)
Herbicidal Effect slender amaranth ([9]; dose 5 g ai/a): 5 (100%)
Phytotoxicity Rice plant ([10]; dose 2.5 g ai/a): 0
Phytotoxicity Rice plant ([10]; dose 5 g ai/a): 0
Phytotoxicity corn ([11]; dose 2.5 g ai/a): 0
Phytotoxicity corn ([11]; dose 5 g ai/a): 0
Herbicidal Effect Barnyard grass ([12]; dose 2.5 g ai/a): 4 (80%-less than 100%)
Herbicidal Effect Barnyard grass ([12]; dose 5 g ai/a): 5 (100%)
Herbicidal Effect slender amaranth ([13]; dose 2.5 g ai/a): 5 (100%)
Herbicidal Effect slender amaranth ([13]; dose 5 g ai/a): 5 (100%)
Herbicidal Effect southern crabgrass ([14]; dose 2.5 g ai/a): 5 (100%)
Herbicidal Effect southern crabgrass ([14]; dose 5 g ai/a): 5 (100%)
Herbicidal Effect velvetleaf ([15]; dose 2.5 g ai/a): 5 (100%)
Herbicidal Effect velvetleaf ([15]; dose 5 g ai/a): 5 (100%)
Herbicidal Effect Flat sedge ([16]; dose 2.5 g ai/a): 3 (60%-less than 80%)
Herbicidal Effect Flat sedge ([16]; dose 5 g ai/a): 4 (80%-less than 100%)
Herbicidal Effect velvetleaf ([17]; dose 2.5 g ai/a): 5 (100%)
Herbicidal Effect velvetleaf ([17]; dose 5 g ai/a): 5 (100%)
Phytotoxicity wheat ([18]; dose 2.5 g ai/a): 1
Phytotoxicity wheat ([18]; dose 5 g ai/a): 1
Herbicidal Effect common lambsquaters ([19]; dose 2.5 g ai/a): 5 (100%)
Herbicidal Effect common lambsquaters ([19]; dose 5 g ai/a): 5 (100%)
Phytotoxicity wheat ([20]; dose 2.5 g ai/a): 0
Phytotoxicity wheat ([20]; dose 5 g ai/a): 0
Herbicidal Effect Monochoria vaginalis ([21]; dose 2.5 g ai/a): 5 (100%)
Herbicidal Effect Monochoria vaginalis ([21]; dose 5 g ai/a): 5 (100%)

Source: patent US20080058213A1, “Benzoxazole Compounds” (priority 2004, published 2008)
